Experimental data reported in patent US4016159A, “Acylamino-cephem-carboxylic acids containing an amidino or guanidino group in the molecule” (Hoechst Aktiengesellschaft, priority 1973, dated 1977).
≈ marks a conversion by molar mass, not a printed value.

Tests used:
Assay type in all cases: cell-based
Proteus mirabilis = assay: Minimum inhibition concentration (MIC), Table 2; settings: Germ: Proteus mirabilis; read-out: Minimum inhibition concentration (MIC)
Description: Minimum inhibition concentration (MIC) in /ml

[1] = tested on: Staphylococcus aureus 285; assay: Minimum inhibition concentration (MIC), Table 1; settings: Staphylococcus aureus, 285, Germ: Staphylococcus aureus 285; read-out: Minimum inhibition concentration (MIC)
Description: (§1) Minimum inhibition concentration (MIC) in γ/ml
Germ: Staphylococcus aureus 285

Streptococcus D = assay: Minimum inhibition concentration (MIC), Table 4; settings: Streptococcus, Germ: Streptococcus D; read-out: Minimum inhibition concentration (MIC)
Description: as §1

[2] = tested on: Staphylococcus aureus SG 511; assay: Minimum inhibition concentration (MIC), Table 5; settings: Staphylococcus aureus, SG511, Germ: Staphylococcus aureus SG 511; read-out: Minimum inhibition concentration (MIC)
Description: as §1
Germ: Staphylococcus aureus SG 511

Streptococcus pyogenes A = assay: Minimum inhibition concentration (MIC), Table 3; settings: Germ: Streptococcus pyogenes A; read-out: Minimum inhibition concentration MIC
Description: Minimum inhibition concentration MIC in γ/ml
Germ: Streptococcus pyogenes A

N=C(N)c1ccc(CC(=O)NC2C(=O)N3C(C(=O)O)=C(CSc4nccs4)CSC23)cc1 (stereo not shown) [Example 4, 3-[(thiazole-2-yl)-thiomethyl]-7-(4-amidino-phenylacetamido)-Δ3-cephem-4-carboxylic acid]
MIC (Proteus mirabilis): 25 µg/mL (≈ 51.1 µM)
MIC [1]: 0.156 to 0.391 µg/mL (≈ 0.319 to 0.799 µM)
MIC (Streptococcus D): 10 to 50 µg/mL (≈ 20.4 to 102 µM)
MIC [2]: 0.0196 to 0.0391 µg/mL (≈ 0.04 to 0.0799 µM)
MIC (Streptococcus pyogenes A): 0.000391 to 0.0078 µg/mL (≈ 0.000799 to 0.0159 µM)

Cc1nnc(SCC2=C(C(=O)O)N3C(=O)C(NC(=O)Cc4ccc(NC(=N)N)cc4)C3SC2)s1 (stereo not shown) [Example 6, 3-[(5-methyl-1,3,4-thiadiazole-2-yl)-thiomethyl]-7-(4-guanidino-phenylacetamido)-Δ3-cephem-4-carboxylic acid]
MIC (Proteus mirabilis): 3.1 to 12.5 µg/mL (≈ 5.97 to 24.1 µM)
MIC [1]: 0.156 to 0.391 µg/mL (≈ 0.3 to 0.752 µM)
MIC (Streptococcus D): 10 to 50 µg/mL (≈ 19.2 to 96.2 µM)
MIC [2]: 0.0196 to 0.0391 µg/mL (≈ 0.0377 to 0.0752 µM)
MIC (Streptococcus pyogenes A): 0.008 to 0.0156 µg/mL (≈ 0.0154 to 0.03 µM)

O=C(Cc1ccc(C2=NCCN2)cc1)NC1C(=O)N2C(C(=O)O)=C(CSc3nc4ccccc4s3)CSC12 (stereo not shown) [Example 118, 3-[(benzothiazole-2-yl)-thiomethyl]-7-[4-(imidazoline-2-yl)-phenylacetamido]-Δ3-cephem-4-carboxylic acid]
MIC (Proteus mirabilis): 25 µg/mL (≈ 44.2 µM)
MIC [1]: 0.156 to 0.391 µg/mL (≈ 0.276 to 0.691 µM)
MIC (Streptococcus D): 0.196 to 6.25 µg/mL (≈ 0.346 to 11 µM)
MIC [2]: 0.0625 to 0.078 µg/mL (≈ 0.11 to 0.138 µM)
MIC (Streptococcus pyogenes A): 0.000391 to 0.0078 µg/mL (≈ 0.000691 to 0.0138 µM)

CCCc1nnc(SCC2=C(C(=O)O)N3C(=O)C(NC(=O)Cc4ccc(C5=NCCN5)cc4)C3SC2)s1 (stereo not shown) [Example 53]
MIC (Proteus mirabilis): 25 µg/mL (≈ 44.7 µM)
MIC [1]: 0.5 to 1.25 µg/mL (≈ 0.895 to 2.24 µM)
MIC (Streptococcus D): 0.196 to 6.25 µg/mL (≈ 0.351 to 11.2 µM)
MIC [2]: 0.0625 to 0.078 µg/mL (≈ 0.112 to 0.14 µM)
MIC (Streptococcus pyogenes A): 0.000391 to 0.0078 µg/mL (≈ 0.0007 to 0.014 µM)

CCc1nnc(SCC2=C(C(=O)O)N3C(=O)C(NC(=O)Cc4ccc(C5=NCCCN5)cc4)C3SC2)s1 (stereo not shown) [Example 121, 3-[(5-ethyl-1,3,4-thiadiazole-2-yl)-thiomethyl]-7-[4-(1,4,5,6-tetrahydropyrimide-2-yl)-phenylacetamido]-Δ3-cephem-4-carboxylic acid]
MIC (Proteus mirabilis): 25 µg/mL (≈ 44.7 µM)
MIC [1]: 0.156 to 0.391 µg/mL (≈ 0.279 to 0.7 µM)
MIC (Streptococcus D): 10 to 50 µg/mL (≈ 17.9 to 89.5 µM)
MIC [2]: 0.0196 to 0.0391 µg/mL (≈ 0.0351 to 0.07 µM)
MIC (Streptococcus pyogenes A): 0.000391 to 0.0078 µg/mL (≈ 0.0007 to 0.014 µM)

CCCc1nnc(SCC2=C(C(=O)O)N3C(=O)C(NC(=O)Cc4ccc(C(=N)N)cc4)C3SC2)s1 (stereo not shown) [Example 58, 3-[(5-n-propyl-1,3,4-thiadiazole-2-yl)-thiomethyl]-7-(4-amidinophenylacetamido)-Δ 3-cephem-4-carboxylic acid]
MIC (Proteus mirabilis): 3.1 to 12.5 µg/mL (≈ 5.82 to 23.5 µM)
MIC [1]: 0.156 to 0.391 µg/mL (≈ 0.293 to 0.734 µM)
MIC (Streptococcus D): 10 to 50 µg/mL (≈ 18.8 to 93.9 µM)
MIC [2]: 0.0196 to 0.0391 µg/mL (≈ 0.0368 to 0.0734 µM)
MIC (Streptococcus pyogenes A): 0.000391 to 0.0078 µg/mL (≈ 0.000734 to 0.0146 µM)

Cc1nnc(SCC2=C(C(=O)O)N3C(=O)C(NC(=O)Cc4ccc(C(=N)N)cc4)C3SC2)o1 (stereo not shown) [Example 60, 3-[(5-methyl-1,3,4-oxadiazole-2-yl)-thiomethyl]-7-(4-amidinophenylacetamido)-Δ 3-cephem-4-carboxylic acid]
MIC (Proteus mirabilis): 3.1 to 12.5 µg/mL (≈ 6.35 to 25.6 µM)
MIC [1]: 0.5 to 1.25 µg/mL (≈ 1.02 to 2.56 µM)
MIC (Streptococcus D): 10 to 50 µg/mL (≈ 20.5 to 102 µM)
MIC [2]: 0.0625 to 0.078 µg/mL (≈ 0.128 to 0.16 µM)
MIC (Streptococcus pyogenes A): 0.000391 to 0.0078 µg/mL (≈ 0.0008 to 0.016 µM)

CCc1nnc(SCC2=C(C(=O)O)N3C(=O)C(NC(=O)Cc4ccc(C5=NCCN5)cc4)C3SC2)s1 (stereo not shown) [Example 120]
MIC (Proteus mirabilis): 3.1 to 12.5 µg/mL (≈ 5.69 to 22.9 µM)
MIC [1]: 0.156 to 0.391 µg/mL (≈ 0.286 to 0.718 µM)
MIC (Streptococcus D): 10 to 50 µg/mL (≈ 18.4 to 91.8 µM)
MIC [2]: 0.0196 to 0.0391 µg/mL (≈ 0.036 to 0.0718 µM)
MIC (Streptococcus pyogenes A): 0.000391 to 0.0078 µg/mL (≈ 0.000718 to 0.0143 µM)

N=C(N)c1ccc(CC(=O)NC2C(=O)N3C(C(=O)O)=C(CSc4nncs4)CSC23)cc1 (stereo not shown) [Example 1, 3-[(1,3,4-thiadiazole-2-yl)-thiomethyl]-7-(4-amidino-phenylacetamido)-Δ3-cephem-4-carboxylic acid]
MIC (Proteus mirabilis): 3.1 to 12.5 µg/mL (≈ 6.32 to 25.5 µM)
MIC [1]: 0.156 to 0.391 µg/mL (≈ 0.318 to 0.797 µM)
MIC (Streptococcus D): 10 to 50 µg/mL (≈ 20.4 to 102 µM)
MIC [2]: 0.0196 to 0.0391 µg/mL (≈ 0.04 to 0.0797 µM)
MIC (Streptococcus pyogenes A): 0.000391 to 0.0078 µg/mL (≈ 0.000797 to 0.0159 µM)

CCCCc1nnc(SCC2=C(C(=O)O)N3C(=O)C(NC(=O)Cc4ccc(C(=N)N)cc4)C3SC2)s1 (stereo not shown) [Example 55, 3-[(5-n-butyl-1,3,4-thiadiazole-2-yl)-thiomethyl]-7-(4-amidinophenylacetamido)-Δ 3-cephem-4-carboxylic acid]
MIC (Proteus mirabilis): 25 µg/mL (≈ 45.7 µM)
MIC [1]: 0.156 to 0.391 µg/mL (≈ 0.285 to 0.715 µM)
MIC (Streptococcus D): 10 to 50 µg/mL (≈ 18.3 to 91.5 µM)
MIC [2]: 0.0625 to 0.078 µg/mL (≈ 0.114 to 0.143 µM)
MIC (Streptococcus pyogenes A): 0.000391 to 0.0078 µg/mL (≈ 0.000715 to 0.0143 µM)

N=C(N)c1ccc(CC(=O)NC2C(=O)N3C(C(=O)O)=C(CSc4nncs4)CSC23)s1 (stereo not shown) [Example 3, 3-[(1,3,4-thiadiazole-2-yl)-thiomethyl]-7-(5-amidinothienyl-acetamido)-Δ3-cephem-4-ccarboxylic acid]
MIC (Proteus mirabilis): 3.1 to 12.5 µg/mL (≈ 6.24 to 25.2 µM)
MIC [1]: 0.156 to 0.391 µg/mL (≈ 0.314 to 0.787 µM)
MIC (Streptococcus D): 10 to 50 µg/mL (≈ 20.1 to 101 µM)
MIC [2]: 0.0625 to 0.078 µg/mL (≈ 0.126 to 0.157 µM)
MIC (Streptococcus pyogenes A): 0.008 to 0.0156 µg/mL (≈ 0.0161 to 0.0314 µM)
